According to patent US7618986B2, “Method of treating latent tuberculosis” (priority 2006, dated 2009):
In brackets after ≈: the same amount, converted by molar mass. Counter-ions that a name gives are not always drawn. Like-named read-outs stand apart in the source and are kept apart here.

Columns and labels:
[1] = system: Mycobacterium tuberculosis H37Rv; experiment: Microplate Alamar Blue Assay (MABA), aerobic; assay type: cell-based
M. tuberculosis H37Rv [2] = experiment: Hypoxic (anaerobic) clonogenic MBC assay, dormant H37Rv; assay type: cell-based; conditions: for MBC: Mycobacterium tuberculosis
[3] = system: Mycobacterium tuberculosis H37Rv; conditions: MABA, 7H12 media, 90% reduction in fluorescence; cited from earlier work
M. tuberculosis H37Rv [4] = conditions: hypoxic MBC assay; cited from earlier work
[5] = Toxicity (MTD, adverse effects) in mice; assay type: in vivo
Excerpt: determination of MTD ([…], MTD) in vivo (C57BL/6 female mice, i.p. administration of single doses, 1 week duration); and
(§1) An oral MTD was not determined.

Toxicity study in rats = assay type: in vivo; conditions: i.v. daily 16 mg/kg, female rats
Toxicity study in dogs = assay type: in vivo; conditions: i.v. daily 10.95 mg/kg
[6] = Plasma concentration after administration to CD2F1 mice; assay type: in vivo
Excerpt: as §1

[7] = Water solubility and stability of aqueous stock solutions; assay type: physicochemical; conditions: for solubility in water: hydrochloride salt
Protocol: Commercially available 4,7-dichloroquinoline (1) first was converted to the 4-fluoro-derivative (2) by refluxing for 6 hours in DMSO with lyophilized potassium fluoride (KF) (1.5 eq) from a 5% aqueous solution.
HRMS (VG 70-250SE mass spectrometer): Calculated for C16H16ClN5O2 (free amine): m/z 345.0992. […] FAB (VG 70-250SE mass spectrometer). Calculated for C16H17ClN5O2 (M+): m/z 346.

[8] = Stability in human plasma; assay type: in vitro ADME
VERO cells = experiment: Cytotoxicity against VERO cells (MTT, 72 hours exposure); assay type: cell-based; conditions: for IC50: Chlorocebus sabaeus, Vero, read-out: IC50 in VERO cells
[9] = in vivo, po, 600 mg; cited from earlier work
[10] = H37RV, pH 6.7, read-out: H37Rv MBC (hypoxic)
[11] = H37RV, present day anti-TB drugs as positive controls, read-out: H37Rv MBC (hypoxic assay)
[12] = dormant H37Rv cells, ranges depending on the assay (Table 2), read-out: MBC (minimum bactericidal concentration)
[13] = dormant H37Rv cells, ranges depending on the assay (Table 2)
[14] = present day anti-TB drugs as positive controls
[15] = pH 6.7, read-out: % Inh (aerobic)
[16] = H37RV, read-out: MBC (minimum bactericidal concentration)

## Cc1nc(C(F)(F)F)nc(NCCCn2ccnc2[N+](=O)[O-])c1C [CF3PM]
[1]; aerobic conditions, 6.25 μg/mL, pH 6.7-6.8, read-out: % Inh (aerobic)
  inhibition at 6.25 µg/mL: 23%
M. tuberculosis H37Rv [2]; [10]
  MBC: 7.01 to 25 µg/mL (≈ 20.4 to 72.6 µM)

## CC[C@H]1OC(=O)[C@H](C)[C@@H](O[C@H]2C[C@@](C)(OC)[C@@H](O)[C@H](C)O2)[C@H](C)[C@@H](O[C@@H]2O[C@H](C)C[C@H](N(C)C)[C@H]2O)[C@](C)(OC)C[C@@H](C)C(=O)[C@H](C)[C@@H](O)[C@]1(C)O [Clarithromycin, clarithromycin]
M. tuberculosis H37Rv [2]; [11]
  MBC: > 312 µg/mL
M. tuberculosis H37Rv [2]; [12]
  MBC: > 312 µg/mL
M. tuberculosis H37Rv [2]; [13]
  MBC (minimum bactericidal concentration): > 312.5 µg/mL

## NNC(=O)c1ccncc1 [Isoniazid, isoniazid]
M. tuberculosis H37Rv [2]; [11]
  MBC: > 100 µg/mL
M. tuberculosis H37Rv [2]; [12]
  MBC: > 100 µg/mL
M. tuberculosis H37Rv [2]; [13]
  MBC (minimum bactericidal concentration): > 100 µg/mL
[3]
  expected MIC range (quality control): 0.025 to 0.1 µg/mL

## Cc1ncc([N+](=O)[O-])n1CCO [Metronidazole, metronidazole]
M. tuberculosis H37Rv [4]
  activity in hypoxic assay: activity is observed only at very high concentrations

## CN(C)c1ccc(O)c2c1C[C@H]1C[C@H]3[C@H](N(C)C)C(O)=C(C(N)=O)C(=O)[C@@]3(O)C(O)=C1C2=O [Minocyclin, minocyclin]
M. tuberculosis H37Rv [2]; [13]
  MBC (minimum bactericidal concentration): >156.25 µg/mL
M. tuberculosis H37Rv [2]; dormant H37Rv cells, ranges depending on the assay (Table 2), listed as minocyclin
  MBC (minimum bactericidal concentration): > 156.25 µg/mL
M. tuberculosis H37Rv [2]; [14]
  H37Rv MBC (hypoxic assay): 156.25 µg/mL

## O=[N+]([O-])c1nccn1CCCNc1ccnc2cc(Cl)ccc12 [NLCQ-1, 4-[3-(2-Nitro-1-imidazolyl)-propylamino]-7-chloroquinoline hydrochloride]
[1]; [15]
  inhibition at 6.25 µg/mL: 0%
[5]; female, C57BL/6, mouse, in vivo, ip, single dose
  MTD at 1 week: 30 mg/kg
[5]; i.p. 30 mg/kg bolus or 45 mg/kg as 3 fractions of 15 mg/kg every two hours daily, mice
  adverse effects: no adverse effects
[5]; mouse, in vivo, ip, multiple doses
  MTD: ≥ 45 mg/kg
Toxicity study in rats
  adverse effects: no adverse effects
Toxicity study in dogs
  adverse effects: no adverse effects
[6]; i.p. injection of 10 mg/kg
  peak plasma concentration: 8.9 µg/mL
[6]; mouse, plasma, oral administration of 10 mg/kg
  bioavailability: 29%
[6]; oral administration of 10 mg/kg
  peak plasma concentration: 0.461 µg/mL
[7]
  hydrophilicity (aqueous solubility) compared with PA-824: more hydrophilic
  solubility in water: soluble in water
M. tuberculosis H37Rv [2]; [10]
  MBC: 3.1 µg/mL
M. tuberculosis H37Rv [2]; [16]
  MBC: 3.1 to 18.4 µg/mL
[8]
  stability in human plasma: good stability in human plasma
VERO cells
  IC50: 147 µg/mL

## O=[N+]([O-])c1nccn1CCCCNc1ccnc2cc(Cl)ccc12 [NLCQ-2, 4-[4-(2-nitro-1-imidazolyl)-butylamino]-7-chloroquinoline hydrochloride]
[1]; [15]
  inhibition at 6.25 µg/mL: 0%
[7]
  hydrophilicity (aqueous solubility) compared with PA-824: more hydrophilic
  solubility in water: soluble in water
M. tuberculosis H37Rv [2]; [10]
  MBC: 6.25 µg/mL
M. tuberculosis H37Rv [2]; [16]
  MBC: 4.9 to 9.8 µg/mL
VERO cells
  IC50: > 640 µg/mL
VERO cells; toxicity, hydrochloride
  IC50 in VERO cells: >640 µg/mL

## O=[N+]([O-])c1cn2c(n1)OC[C@@H](OCc1ccc(OC(F)(F)F)cc1)C2 [PA-824]
M. tuberculosis H37Rv [2]; [16]
  MBC: 6.4 to 12.8 µg/mL (≈ 17.8 to 35.6 µM)
VERO cells; toxicity
  IC50: > 640 µg/mL
  IC50 in VERO cells: >640 µg/mL
VERO cells; VERO IC50 / MBC dormant H37Rv
  SI, selectivity index (IC50/MBC): >50-100

## CO[C@H]1/C=C/O[C@@]2(C)Oc3c(C)c(O)c4c(O)c(c(/C=N/N5CCN(C)CC5)c(O)c4c3C2=O)NC(=O)/C(C)=C\C=C\[C@H](C)[C@H](O)[C@@H](C)[C@@H](O)[C@@H](C)[C@H](OC(C)=O)[C@@H]1C [Rifampin, rifampin]
M. tuberculosis H37Rv [2]; [11]
  MBC: 2.5 µg/mL (≈ 3.04 µM)
M. tuberculosis H37Rv [2]; [12]
  MBC: 2.5 µg/mL (≈ 3.04 µM)
[9]
  Cmax: 8000 ng/mL

## [H]/N=C(/N)N[C@H]1[C@H](O)[C@@H](O)[C@H](O[C@@H]2O[C@@H](C)[C@](O)(C=O)[C@H]2O[C@@H]2O[C@@H](CO)[C@H](O)[C@@H](O)[C@@H]2NC)[C@@H](N/C(N)=N\[H])[C@@H]1O [Streptomycin, streptomycin]
M. tuberculosis H37Rv [2]; [11]
  MBC: 12.5 µg/mL (≈ 21.5 µM)
M. tuberculosis H37Rv [2]; [12]
  MBC: > 12.5 µg/mL
M. tuberculosis H37Rv [2]; [13]
  MBC (minimum bactericidal concentration): > 12.5 µg/mL

## capreomycin
M. tuberculosis H37Rv [2]; [13]
  MBC (minimum bactericidal concentration): 37.5 µg/mL
M. tuberculosis H37Rv [2]; [14]
  H37Rv MBC (hypoxic assay): 37.5 µg/mL
